Literature values in US20180243247A1, “DRUG COMBINATIONS FOR CEREBROVASCULAR DISEASE” (priority 2017, published 2018).
Where two headings read alike, the source gives them in different places.

Tests used:
[1] = tested on: rodent models of CNS ischemia

| Structure (SMILES) | neuroprotection ([1]; dose concentration of 0.1 mg/kg) | neuroprotection ([1]; lower doses than 0.1 mg/kg, monotherapy) | neuroprotective effects ([1]; rodent models of CNS ischemia) | calcium influx through the AMPA receptor (AMPA receptor) |
| --- | --- | --- | --- | --- |
| C=CC[C@@H]1/C=C(\C)C[C@H](C)C[C@H](OC)[C@H]2O[C@@](O)(C(=O)C(=O)N3CCCC[C@H]3C(=O)O[C@H](/C(C)=C/[C@@H]3CC[C@@H](O)[C@H](OC)C3)[C@H](C)[C@@H](O)CC1=O)[C@H](C)C[C@@H]2OC [Tacrolimus] | neuroprotective | not neuroprotective | exhibits neuroprotective effects |  |
| NCCCNCCCCNCCC(=O)NCCCCCNC(=O)[C@H](CC(N)=O)NC(=O)Cc1ccc(O)cc1O [JSTX-3] |  |  |  | dramatically reduces calcium influx |
